Measurements from paper PMC11798738, “Targeting ASK1 by CS17919 alleviates kidney‐ and liver‐related diseases in murine models” (Animal Models and Experimental Medicine, 2024).
Entries after “also recorded” stand apart in the source; their conditions may differ. Where two headings read alike, the source gives them in different places. Marks after values point to notes of the source that are not given here.

Tests used:
MRC‐5 = assay: MTS cytotoxicity assay, MRC-5; assay type: cell-based, human; conditions: 72 h
Experimental: (§1) Human embryonic kidney cells (HEK‐293A), human hepatocellular carcinoma cells (HUH7), human embryonic liver diploid cells (CCC‐HEL‐1) and human embryonic lung cells (MRC‐5) were selected for the cytotoxicity study of both drugs, using the MTS assay protocol. Cells were cultured at 37°C with 5% CO2 using an appropriate medium. […] After 72 h of incubation, 30 μL of MTS solution was added to each well, and the cells were then incubated for 2–4 h in the dark. The absorbance value of each well at 490 nm was measured using an enzymatic plate reader and the IC50 for each drug and each cell line was calculated. Cell viability and cytoxicity experiments were repeated three times.

NASH [1] = test system: NASH; design: method as in PMID 32147362; conditions: cited from earlier work
UUO mouse model = UUO mouse model of kidney injury and fibrosis; assay type: in vivo, C57BL/6J mice; conditions: CS17919 10 and 60 mg/kg, GS-4997 30 mg/kg, gavage twice daily, 11 days
Experimental: 55 C57BL/6J mice, male, 6–8 weeks old were purchased from Chengdu Pharmachem Biotechnology Co. (Chengdu, China) and randomly divided into 5 groups according to their body weight: Sham (n = 10), Model (n = 15), CS17919L (10 mg/kg, n = 10), CS17919H (60 mg/kg, n = 10), and GS‐4997 (30 mg/kg, n = 10). The mice were anesthetized and fixed on the operating table, and the abdominal cortex and muscles were cut in the middle of the right side of the abdomen, and the ureter was searched for along the renal hilum. The ureter was separated using a glass split‐needle and ligated at the opening of the renal pelvis and the upper 1/3 of the ureter, and the ureter was cut between the two ligatures. Finally, the muscle and skin were closed with consecutive sutures, and animals were kept under observation until they awoke. Both the Sham and the Model group received solvent (0.2% CMC‐Na + 0.1% Tween‐80) orally twice daily. CS17919 and GS‐4997 were administered by gavage twice daily at the corresponding doses for 11 days. All treatments were started one day before surgical operation. All mice were sacrificed one day after administration with overnight fasting. Blood was collected, and serum was isolated for the analysis of urea nitrogen and creatinine. The kidney of each mouse was removed, weighed and fixed in 10% formalin solution for pathological study.
Masson staining was applied to determine kidney fibrosis in the UUO model. Thin 4 μm paraffin sections of each sample were used in this study, which followed the standard procedure. The sections were stained with Hematoxylin staining solution for 5–10 min and then washed, followed by staining with Ponceau S‐acid fuchsin stain for around 5–10 min. The sections were treated with 1% phosphomolybdic acid and Aniline Blue solution, and finally dehydrated stepwise in alcohol and sealed. VIS7.0 software was used to analyze the area of kidney fibrosis and the percentage of the fibrosis area in the scanning area was calculated.

diabetic kidney disease = test system: diabetic kidney disease; design: method as in PMID 25531162; conditions: cited from earlier work
CCC‐HEL‐1 = assay: MTS cytotoxicity assay, CCC-HEL-1; assay type: cell-based, human; conditions: 72 h
Experimental: as §1

L02 cells = assay: Cell protection in PA-stimulated L02 cells (Cell Titer-Glo viability); assay type: cell-based, human; conditions: 50 μmol/L PA, 72 h
Experimental: L02 cells were cultured in DMEM medium (Gibco, 11 965 092, Carlsbad, CA, USA) supplemented with 20% FBS and 1× penicillin–streptomycin. L02 cells were inoculated in two 96‐well plates at 1E4 cells/well (200 μL). The following day, the cells were stimulated with 50 μmol/L PA (dissolved in ethanol to make a 200× stock solution and then added to the medium) and simultaneously incubated with different concentrations of CS17919 and GS‐4997 (CS17919 and GS‐4997 stock solutions were added to the well plates to reach a final concentration of 10–0.3 μmol/L). After 72 h of incubation, the original medium was removed, followed by the addition of 100 μL of new DMEM medium and 60 μL of Cell Titer‐Glo reagent per well. The cells were incubated for 5 min in the dark, and then transferred to a black permeable plate for detection using an enzyme plate reader (Tecan spark, Grödig, Austria).

[2] = test system: 5/6 nephrectomy (5/6 Nx) rat model; design: method as in PMID 35919527; conditions: GS-4997 alone; cited from earlier work
NASH mouse model [3] = assay: CCL4- and HFD-induced NASH mouse model; assay type: in vivo, C57BL/6J mice; conditions: data not shown; model group 5/9
[4] = Metabolic stability in liver microsomes; assay type: in vitro ADME; conditions: Human
CYP 2C19 = CYP 2C19 (Homo sapiens, UniProt P33261); assay: CYP inhibition in vitro; assay type: in vitro ADME
Chain of CYP 2C19 (P33261 whole entry): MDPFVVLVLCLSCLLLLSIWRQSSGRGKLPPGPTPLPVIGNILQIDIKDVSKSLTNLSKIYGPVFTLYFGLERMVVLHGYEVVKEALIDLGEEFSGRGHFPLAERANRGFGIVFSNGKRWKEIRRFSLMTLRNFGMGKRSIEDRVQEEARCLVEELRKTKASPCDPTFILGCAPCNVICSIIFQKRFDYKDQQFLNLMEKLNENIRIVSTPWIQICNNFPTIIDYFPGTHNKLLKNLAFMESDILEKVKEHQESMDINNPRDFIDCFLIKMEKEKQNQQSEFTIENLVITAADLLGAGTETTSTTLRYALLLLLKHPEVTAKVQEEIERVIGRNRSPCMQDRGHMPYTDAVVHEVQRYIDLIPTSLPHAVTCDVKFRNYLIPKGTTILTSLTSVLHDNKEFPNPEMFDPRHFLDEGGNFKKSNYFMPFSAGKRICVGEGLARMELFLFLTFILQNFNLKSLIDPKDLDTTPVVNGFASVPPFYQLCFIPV

NASH mouse model [5] = assay: CCL4- and HFD-induced NASH mouse model; assay type: in vivo, C57BL/6J mice; conditions: CS17919 20 mg/kg
Experimental: 41 C57BL/6J mice, male, 6–8 weeks of age, were purchased from Chengdu Dossy Experimental Animal Co. (Chengdu, China), 9 of which were assigned in the control group and fed a chow diet. The other 32 mice were fed a HFD (D12429, Research diet, USA). After 8 weeks of feeding, these mice with HFD were subcutaneously injected with CCL4 (0.1 mL/kg) twice a week. These mice were then randomly subdivided into 4 groups according to serum ALT and AST at week 12: Model (n = 8), CS17919 (n = 8), CS27109 (n = 8), and Combination (n = 8). Both the control and model groups were given the solvent mentioned above, administered orally twice a day, while CS17919 was administered twice a day by gavage at a dose of 20 mg/kg and CS27109 was administered twice a day by gavage at a dose of 10 mg/kg for 4 weeks. The body weight of each mouse was measured every 3 days during the drug intervention. All animals were fasted overnight after the last drug administration and blood was collected to isolate serum for biochemical tests including AST, ALT, TG, TC, HDL‐c, and LDL‐c. The liver of each mouse was removed, the right lobe of which was fixed in 10% formalin solution for pathological study.
H&E staining was applied to determine scores for liver steatosis, ballooning and inflammation in the NASH model. Thin 4 μm paraffin sections of each sample were used to assess liver histology, following a standard protocol. Paraffin sections were deparaffinized and placed in Hematoxylin staining solution for 3–8 min before using tap water to elute excess Hematoxylin. Sections were stained in Eosin stain for about 1–3 min and rinsed with tap water. Finally, the slices were dehydrated and sealed. Score ranges were 0–3 for liver steatosis, 0–2 for ballooning and 0–12 for inflammation (which included scores of 0–3 for portal inflammation, 0–3 for lobular inflammation, 0–3 for piecemeal necrosis, and 0–3 for bridging necrosis).
Sirius Red staining was applied to determine liver fibrosis in the NASH model. Thin 4 μm paraffin sections of each sample were used in this study followed the standard procedure. Sections were first stained with Hematoxylin for 5–10 min, then washed and stained with Sirius Red stain about 15–30 min. Finally, the sections were rinsed and sealed. Image‐Pro Plus 6.0 was used for analyzing the area of liver fibrosis and the percentage of the fibrosis area in each section was calculated.

[6] = Metabolic stability in liver microsomes; assay type: in vitro ADME; conditions: Mouse
CYP3A4 [7] = target: T1, CYP3A4 (Homo sapiens, UniProt P08684); assay: CYP inhibition in vitro; conditions: read-out: CYP3A4 (Midazolam) inhibition IC50; substrate Midazolam
T1 sequence (P08684 whole entry): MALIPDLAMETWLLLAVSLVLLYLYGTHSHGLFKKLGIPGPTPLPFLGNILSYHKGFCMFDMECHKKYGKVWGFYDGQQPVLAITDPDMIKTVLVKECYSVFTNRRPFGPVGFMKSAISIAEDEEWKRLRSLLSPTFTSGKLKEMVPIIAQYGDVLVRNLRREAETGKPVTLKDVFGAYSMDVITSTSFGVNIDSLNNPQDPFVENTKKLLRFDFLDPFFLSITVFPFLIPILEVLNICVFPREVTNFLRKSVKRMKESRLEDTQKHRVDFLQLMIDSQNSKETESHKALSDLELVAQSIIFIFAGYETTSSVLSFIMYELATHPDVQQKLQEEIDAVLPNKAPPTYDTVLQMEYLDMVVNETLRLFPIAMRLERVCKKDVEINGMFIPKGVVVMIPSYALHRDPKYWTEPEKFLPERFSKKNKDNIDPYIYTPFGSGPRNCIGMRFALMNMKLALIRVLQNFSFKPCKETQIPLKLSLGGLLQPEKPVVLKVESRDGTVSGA

CYP 2C9 = CYP 2C9 (Homo sapiens, UniProt P11712); assay: CYP inhibition in vitro; assay type: in vitro ADME
Chain of CYP 2C9 (P11712 whole entry): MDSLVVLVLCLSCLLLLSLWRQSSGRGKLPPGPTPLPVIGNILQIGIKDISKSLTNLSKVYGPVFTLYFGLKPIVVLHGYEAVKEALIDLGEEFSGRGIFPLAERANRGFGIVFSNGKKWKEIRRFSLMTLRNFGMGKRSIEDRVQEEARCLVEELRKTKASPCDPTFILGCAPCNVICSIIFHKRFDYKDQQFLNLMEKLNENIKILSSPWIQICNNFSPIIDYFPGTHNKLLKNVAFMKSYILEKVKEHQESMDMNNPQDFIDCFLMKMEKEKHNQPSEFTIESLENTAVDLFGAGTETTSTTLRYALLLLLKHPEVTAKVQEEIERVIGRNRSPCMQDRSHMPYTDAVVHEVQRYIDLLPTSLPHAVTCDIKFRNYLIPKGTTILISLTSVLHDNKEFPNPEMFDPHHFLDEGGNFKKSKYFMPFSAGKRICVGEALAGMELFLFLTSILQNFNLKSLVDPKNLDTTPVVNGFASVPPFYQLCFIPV

[8] = Metabolic stability in liver microsomes; assay type: in vitro ADME; conditions: Rat
CYP 2C8 = CYP 2C8 (Homo sapiens, UniProt P10632); assay: CYP inhibition in vitro; assay type: in vitro ADME
Chain of CYP 2C8 (P10632 whole entry): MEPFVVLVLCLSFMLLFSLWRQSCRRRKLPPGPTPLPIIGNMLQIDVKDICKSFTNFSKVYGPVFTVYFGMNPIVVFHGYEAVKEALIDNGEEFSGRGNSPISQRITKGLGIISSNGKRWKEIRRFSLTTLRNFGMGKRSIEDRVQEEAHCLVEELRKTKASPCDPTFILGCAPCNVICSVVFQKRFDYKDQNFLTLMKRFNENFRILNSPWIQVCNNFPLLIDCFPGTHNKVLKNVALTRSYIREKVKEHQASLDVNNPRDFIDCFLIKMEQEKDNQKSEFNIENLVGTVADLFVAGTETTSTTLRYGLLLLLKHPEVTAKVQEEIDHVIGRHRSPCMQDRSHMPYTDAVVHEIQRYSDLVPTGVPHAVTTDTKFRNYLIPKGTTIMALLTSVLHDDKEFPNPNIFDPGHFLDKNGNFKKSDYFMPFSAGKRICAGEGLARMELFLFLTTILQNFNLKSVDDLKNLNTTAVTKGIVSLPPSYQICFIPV

CYP 2D6 = CYP 2D6 (Homo sapiens, UniProt P10635); assay: CYP inhibition in vitro; assay type: in vitro ADME
Chain of CYP 2D6 (P10635 whole entry): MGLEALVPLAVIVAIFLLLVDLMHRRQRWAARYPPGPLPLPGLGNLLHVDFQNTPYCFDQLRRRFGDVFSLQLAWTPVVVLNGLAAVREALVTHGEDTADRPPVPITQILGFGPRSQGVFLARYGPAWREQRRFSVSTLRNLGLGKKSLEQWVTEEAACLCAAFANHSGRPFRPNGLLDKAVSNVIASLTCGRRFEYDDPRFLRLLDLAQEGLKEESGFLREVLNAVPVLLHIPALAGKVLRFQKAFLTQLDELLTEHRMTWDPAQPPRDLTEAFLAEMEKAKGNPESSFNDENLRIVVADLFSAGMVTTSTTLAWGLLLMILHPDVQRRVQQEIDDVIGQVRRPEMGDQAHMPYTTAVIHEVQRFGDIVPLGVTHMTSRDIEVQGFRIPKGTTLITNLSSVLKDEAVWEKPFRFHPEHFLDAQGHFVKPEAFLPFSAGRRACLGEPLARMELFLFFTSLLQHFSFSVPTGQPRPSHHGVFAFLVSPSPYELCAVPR

CYP3A4 [9] = target: T1, CYP3A4
CYP 2B6 = CYP 2B6 (Homo sapiens, UniProt P20813); assay: CYP inhibition in vitro; assay type: in vitro ADME
Chain of CYP 2B6 (P20813 whole entry): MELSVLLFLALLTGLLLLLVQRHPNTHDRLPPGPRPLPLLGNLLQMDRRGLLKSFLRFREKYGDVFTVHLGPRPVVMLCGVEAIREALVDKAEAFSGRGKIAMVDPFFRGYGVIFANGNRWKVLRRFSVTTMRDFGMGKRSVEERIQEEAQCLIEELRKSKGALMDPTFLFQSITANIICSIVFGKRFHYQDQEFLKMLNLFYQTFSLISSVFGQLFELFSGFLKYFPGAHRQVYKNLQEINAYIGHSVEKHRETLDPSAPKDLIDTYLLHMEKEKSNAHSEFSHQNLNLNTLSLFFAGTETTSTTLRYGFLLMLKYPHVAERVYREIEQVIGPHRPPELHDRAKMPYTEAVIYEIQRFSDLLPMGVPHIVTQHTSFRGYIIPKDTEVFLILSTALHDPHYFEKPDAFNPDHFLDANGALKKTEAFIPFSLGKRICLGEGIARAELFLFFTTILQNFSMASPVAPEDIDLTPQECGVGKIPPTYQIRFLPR

CYP 1A2 = CYP 1A2 (Homo sapiens, UniProt P05177)
Chain of CYP 1A2 (P05177 whole entry): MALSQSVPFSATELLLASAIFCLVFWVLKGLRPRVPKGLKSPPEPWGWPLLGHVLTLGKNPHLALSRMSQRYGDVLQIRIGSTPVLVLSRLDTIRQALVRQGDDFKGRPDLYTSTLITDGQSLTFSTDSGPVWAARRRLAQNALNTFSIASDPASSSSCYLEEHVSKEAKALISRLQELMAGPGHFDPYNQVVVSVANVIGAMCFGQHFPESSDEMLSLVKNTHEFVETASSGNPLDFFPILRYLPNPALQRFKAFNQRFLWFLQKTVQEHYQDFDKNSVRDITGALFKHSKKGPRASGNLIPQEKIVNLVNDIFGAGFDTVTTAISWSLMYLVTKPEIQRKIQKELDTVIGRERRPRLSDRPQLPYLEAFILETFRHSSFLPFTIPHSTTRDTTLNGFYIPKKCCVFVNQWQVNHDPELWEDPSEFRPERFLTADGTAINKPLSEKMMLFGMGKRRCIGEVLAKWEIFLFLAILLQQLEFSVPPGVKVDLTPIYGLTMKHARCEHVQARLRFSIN

NASH [10] = test system: NASH; design: method as in PMID 28218919, PMID 31996485; conditions: cited from earlier work
UUO model = test system: UUO model; design: method as in PMID 37310976; conditions: cited from earlier work
DKD = test system: DKD; design: method as in PMID 30526503, PMID 26180085, PMID 30024858; conditions: cited from earlier work
[11] = 4 weeks, CS27109 10 mg/kg twice a day
[12] = serum after 4 weeks, CS27109 10 mg/kg, gavage twice a day, mean ± SD

SMILES: Cc1cc(F)c(C(=O)Nc2cccc(-c3nncn3C(C)C)n2)cc1-n1cnc(C2CC2)c1 [GS‐4997, Selonsertib, reference compound]
- Cytotoxicity (cell viability) (MRC‐5): reduced cell viability at higher doses; also recorded: high‐dose cytotoxicity
- Outcome of phase III NASH trial (NASH [1]): failed
- Area of kidney fibrosis (Masson staining) (UUO mouse model): tendency to reduce
- Serum creatinine vs model group (UUO mouse model): non‐significant tendency to decrease
- Serum urea nitrogen vs model group (UUO mouse model): significantly reduced
- Outcome of DKD clinical trial (diabetic kidney disease): did not meet its primary endpoint
- Cytotoxicity (cell viability) (CCC‐HEL‐1): reduced cell viability at higher doses
- Cell protection (cell viability normalized to PA-treated cells) (L02 cells; 0.32–10 μmol/L drug): only protected against cell death at lower doses
- Cell viability at high drug doses (L02 cells; 5 and 10 μmol/L drug): reduced cell viability in a dose‐dependent manner
- CKD-related characteristics and kidney function [2]: barely improved CKD‐related characteristics, but preserved kidney function

SMILES: N#Cc1nn(-c2cc(Br)c(Oc3n[nH]c(=O)c4ccccc34)c(Br)c2)c(=O)[nH]c1=O [CS27109]
- Occurrence of hepatocellular carcinoma (mice affected/group) (NASH mouse model [3]): 2/8
- Clint in liver microsomes [4]: 0.83 mL/min/kg
- T1/2 in liver microsomes [4]: >120 min
- IC50 (CYP 2C19): > 10 µM
- Liver fibrosis area (Sirius Red staining) (NASH mouse model [5]; [11]): improving all pathologic features of NASH
- Liver inflammation score (H&E) (NASH mouse model [5]; [11]): improving all pathologic features of NASH
- Liver steatosis and ballooning scores (H&E) (NASH mouse model [5]; [11]): improving all pathologic features of NASH
- ALT (NASH mouse model [5]; [12]): 68.7 ± 18.8^c U/L
- AST (NASH mouse model [5]; [12]): 113.0 ± 36.2^a U/L
- HDL‐C (NASH mouse model [5]; [12]): 0.665 ± 0.284 mmol/L
- LDL‐C (NASH mouse model [5]; [12]): 0.040 ± 0.026^b mmol/L
- TC (NASH mouse model [5]; [12]): 0.785 ± 0.277 mmol/L
- TG (NASH mouse model [5]; [12]): 0.329 ± 0.341 mmol/L
- Clint in liver microsomes [6]: 7.72 mL/min/kg
- T1/2 in liver microsomes [6]: >120 min
- IC50 (CYP3A4 [7]): > 10 µM
- IC50 (CYP 2C9): 5.1 µM
- Clint in liver microsomes [8]: 4.24 mL/min/kg
- T1/2 in liver microsomes [8]: >120 min
- IC50 (CYP 2C8): > 10 µM
- IC50 (CYP 2D6): > 10 µM
- IC50 (CYP3A4 [9]): > 10 µM
- IC50 (CYP 2B6): > 10 µM
- IC50 (CYP 1A2): > 10 µM

SMILES: O=C(Nc1cccc(-c2nncn2C2CC2)c1)c1cc(-n2cnc(C3CC3)c2)ccn1 [GS‐444217]
- NASH symptoms (NASH [10]): significantly ameliorated NASH symptoms
- Kidney fibrosis (UUO model): attenuate kidney fibrosis
- Glomerular sclerosis progression (DKD): halt the progression of glomerular sclerosis
